Assay results reported in patent US20220184071A1, “GEPOTIDACIN FOR USE IN THE TREATMENT OF BACTERIAL URINARY TRACT INFECTIONS” (GlaxoSmithKline Intellectual Property Development Limited, priority 2019, published 2022).
≈ marks a conversion by molar mass, not a printed value. Read-outs that look alike come from different tables or passages of the source.

Tests used:
[1] = system: Acinetobacter pittii; experiment: Phase IIa non-qualifying baseline uropathogen MIC; format: cell-based; details: baseline uropathogen recovered at <10^5 CFU/mL
Experimental: (§1) This phase IIa single center study evaluated the safety, tolerability, pharmacokinetics, and efficacy of oral gepotidacin 1500 mg BID for 5 days in female subjects with acute cystitis. Clean catch mid-stream urine specimens were obtained for quantitative culture by standard methods. Urine samples were taken from all participants pre-treatment (baseline) and at all post-baseline visits. All urine samples were sent to a central laboratory (PPD Global Clinical Laboratories, Highland Heights, Ky., USA) for Gram stain, quantitative culture, pathogen identification and susceptibility testing. See FIG. 1 for participant disposition and study outline.
(§2) Susceptibility testing by CLSI broth microdilution and gradient diffusion (fosfomycin only) was conducted (CLSI, 2015, Methods for dilution antimicrobial susceptibility tests for bacteria that grow aerobically; approved standard-tenth edition; and CLSI, 2018. Performance Standards for Antimicrobial Susceptibility Testing; Twenty-seventh Informational Supplement M100-S28). Inclusion in the microbiological intent-to-treat population (micro-ITT), required growth of a qualifying baseline uropathogen (≥10^5 CFU/mL). See FIG. 2 for the baseline algorithm.

[2] = system: Citrobacter freundii complex; experiment: Phase IIa non-qualifying baseline uropathogen MIC; format: cell-based; details: baseline uropathogen recovered at <10^5 CFU/mL
Experimental: as §1, §2

[3] = system: P. aeruginosa; experiment: MIC by CLSI agar dilution, Example 1 Method 2; format: cell-based, Pseudomonas aeruginosa; details: n = 55
Experimental: (§3) Antimicrobial activity was determined in a second study by […] using the CLSI recommended procedure in serial two-fold dilutions and the minimum inhibitory concentration (MIC) was determined as the lowest concentration of the compound that inhibited visible growth.
(§4) MICs were determined according to CLSI agar dilution guidelines.

[4] = system: Prevotella spp.; experiment: MIC by CLSI agar dilution, Example 6 Method 1; format: cell-based
Experimental: (§5) Antimicrobial activity was determined by agar dilution using the Clinical and Laboratory Standards Institute (CLSI) recommended procedure.
(§6) The compounds were tested in serial two-fold dilutions and the minimum inhibitory concentration (MIC) was determined as the lowest concentration of the compound that inhibited visible growth. Gepotidacin was tested against 333 gram-negative anaerobic and 203 gram-positive anaerobic isolates collected from clinical samples in North America and Europe from 2000 to 2017; the majority collected from 2013 to 2016.
(§7) Ceftriaxone, clindamycin, imipenem, metronidazole, moxifloxacin and piperacillin/tazobactam were included as comparators.
(§8) Additional analysis was performed from the results of the study described in Method 1 above, to determine the in vitro activity of gepotidacin against gram-negative and gram-positive anaerobic organisms with resistance to ceftriaxone, clindamycin, imipenem, metronidazole, moxifloxacin and piperacillin/tazobactam.

[5] = system: Eubacterium spp.; experiment: MIC by CLSI agar dilution, Example 6 Method 1; format: cell-based
Experimental: as §5, §6, §7, §8

[6] = system: Sutterella wadsworthensis; experiment: MIC by CLSI agar dilution, Example 6 Method 1; format: cell-based
Experimental: as §5, §6, §7, §8

[7] = system: Veillonella spp.; experiment: MIC by CLSI agar dilution, Example 6 Method 1; format: cell-based
Experimental: as §5, §6, §7, §8

[8] = system: Fusobacterium spp.; experiment: MIC by CLSI agar dilution, Example 6 Method 1; format: cell-based
Experimental: as §5, §6, §7, §8

[9] = system: Providencia rettgeri; experiment: MIC, Example 5 Method 1; format: cell-based; details: at least one isolate tested
[10] = system: Shigella; experiment: MIC by CLSI agar dilution, Example 1 Method 2; format: cell-based
Experimental: as §3, §4

[11] = system: Shigella flexneri; experiment: MIC by CLSI agar dilution, Example 1 Method 2; format: cell-based; details: n=24
Experimental: as §3, §4

[12] = system: Enterobacter (Enterobacter aerogenes, Enterobacter cloacae complex); experiment: MIC by CLSI agar dilution, Example 1 Method 2; format: cell-based; details: n = 55
Experimental: as §3, §4

[13] = system: Shigella boydii; experiment: MIC by CLSI agar dilution, Example 1 Method 2; format: cell-based; details: n=3
Experimental: as §3, §4

[14] = system: Klebsiella oxytoca, Klebsiella variicola, Proteus hauseri and Proteus peneri; experiment: MIC by CLSI agar dilution, Example 1 Method 2; format: cell-based; details: in each case against at least one isolate
Experimental: as §3, §4

[15] = system: Proteus (Proteus mirabilis, Proteus penneri, Proteus hauseri); experiment: MIC by CLSI agar dilution, Example 1 Method 2; format: cell-based; details: n = 56
Experimental: as §3, §4

[16] = system: Klebsiella (Klebsiella oxytoca, Klebsiella variicola, Klebsiella pneumoniae); experiment: MIC by CLSI agar dilution, Example 1 Method 2; format: cell-based; details: n = 55
Experimental: as §3, §4

[17] = system: Shigella sonnei; experiment: MIC by CLSI agar dilution, Example 1 Method 2; format: cell-based; details: n=64
Experimental: as §3, §4

[18] = system: S. saprophyticus; experiment: MIC by CLSI agar dilution, Example 1 Method 2; format: cell-based, Staphylococcus saprophyticus
Experimental: as §3
This study tested gepotidacin by CLSI agar dilution against 51 isolates of S. saprophyticus collected between 2005-2018.
Amikacin, ceftazidime, colistin, fosfomycin, levofloxacin, meropenem, nitrofurantoin and trimethoprim-sulfamethoxazole were included as comparators. MICs for and comparators were determined by agar dilution according CLSI methods.
as §4

O=c1ccc2ncc(=O)n3c2n1C[C@H]3CN1CCC(NCc2cc3c(cn2)OCCC3)CC1 [gepotidacin, (2R)-2-({4-[(3,4-dihydro-2H-pyrano[2,3-c]pyridin-6-ylmethyl)amino]-1-piperidinyl}methyl)-1,2-dihydro-3H,8H-2a,5,8a-triazaacenaphthylene-3,8-dione]
MIC [1]: 1 µg/mL (≈ 2.23 µM) | MIC [2]: 1 µg/mL (≈ 2.23 µM) | MIC50 ([3]; Pseudomonas aeruginosa): 8 µg/mL (≈ 17.8 µM) | MIC90 ([3]; Pseudomonas aeruginosa): 32 µg/mL (≈ 71.3 µM) | Number of Isolates at Gepotidacin MIC 0.5 mg/L [3]: 1 | Number of Isolates at Gepotidacin MIC 1 mg/L [3]: 2 | Number of Isolates at Gepotidacin MIC 2 mg/L [3]: 4 | Number of Isolates at Gepotidacin MIC 4 mg/L [3]: 18 | Number of Isolates at Gepotidacin MIC 8 mg/L [3]: 15 | Number of Isolates at Gepotidacin MIC ≥16 mg/L [3]: 15 | MIC90 ([4]; Prevotella, 30 isolates, read-out: Gepotidacin MIC90): 4 µg/mL (≈ 8.92 µM) | Gepotidacin MIC range ([4]; ceftriaxone R, 6 isolates): 0.25 to 2 µg/mL | Gepotidacin MIC range ([4]; clindamycin R, 7 isolates): 0.25 to 4 µg/mL | MIC90 ([5]; Eubacterium, 31 isolates, read-out: Gepotidacin MIC90): 2 µg/mL (≈ 4.46 µM) | Gepotidacin MIC range ([5]; moxifloxacin R, 3 isolates): 0.25 to 2 µg/mL | MIC90 ([6]; Sutterella wadsworthensis, 10 isolates, read-out: Gepotidacin MIC90): 1 µg/mL (≈ 2.23 µM) | Gepotidacin MIC range ([6]; metronidazole R, 4 isolates): 0.5 to 1 µg/mL | MIC90 ([7]; Veillonella, 25 isolates, read-out: Gepotidacin MIC90): 0.12 µg/mL (≈ 0.268 µM) | Gepotidacin MIC range ([7]; clindamycin R, 5 isolates): 0.125 µg/mL | Gepotidacin MIC range ([7]; moxifloxacin R, 3 isolates): ≤0.015 to 0.03 µg/mL | MIC90 ([8]; Fusobacterium, 25 isolates, read-out: Gepotidacin MIC90): 2 µg/mL (≈ 4.46 µM) | Gepotidacin MIC range ([8]; clindamycin R, 2 isolates): 0.25 to 2 µg/mL | MIC [9]: 8 µg/mL (≈ 17.8 µM) | % of the tested isolates inhibited at ≤2 mg/L ([10]; 91 isolates): 95.6% | % of the tested isolates inhibited at ≤8 mg/L ([10]; 91 isolates): 100% | MICs ranged ([10]; 91 isolates): 0.125 to 8 mg/L | MIC50 ([10]; Shigella, n = 91): 1 µg/mL (≈ 2.23 µM) | MIC90 ([10]; Shigella, n = 91): 2 µg/mL (≈ 4.46 µM) | Number of Isolates at Gepotidacin MIC 0.5 mg/L ([10]; n = 91): 18 | Number of Isolates at Gepotidacin MIC 1 mg/L ([10]; n = 91): 36 | Number of Isolates at Gepotidacin MIC 2 mg/L ([10]; n = 91): 19 | Number of Isolates at Gepotidacin MIC 4 mg/L ([10]; n = 91): 3 | Number of Isolates at Gepotidacin MIC 8 mg/L ([10]; n = 91): 1 | Number of Isolates at Gepotidacin MIC ≤0.25 mg/L ([10]; n = 91): 14 | Effect of levofloxacin non-susceptibility or QRDR substitutions in GyrA and ParC on activity ([10]; where data was available): unaffected | MIC90 [11]: 2 µg/mL (≈ 4.46 µM) | MIC50 [12]: 16 µg/mL (≈ 35.7 µM) | MIC90 [12]: 32 µg/mL (≈ 71.3 µM) | Number of Isolates at Gepotidacin MIC 2 mg/L [12]: 3 | Number of Isolates at Gepotidacin MIC 4 mg/L [12]: 12 | Number of Isolates at Gepotidacin MIC 8 mg/L [12]: 7 | Number of Isolates at Gepotidacin MIC ≤0.25 mg/L [12]: 1 | Number of Isolates at Gepotidacin MIC ≥16 mg/L [12]: 32 | MIC [13]: 2 µg/mL (≈ 4.46 µM) | MIC [14]: ≥ 4 µg/mL | MIC50 [15]: 8 µg/mL (≈ 17.8 µM) | MIC90 [15]: 32 µg/mL (≈ 71.3 µM) | Number of Isolates at Gepotidacin MIC 0.5 mg/L [15]: 3 | Number of Isolates at Gepotidacin MIC 1 mg/L [15]: 4 | Number of Isolates at Gepotidacin MIC 2 mg/L [15]: 11 | Number of Isolates at Gepotidacin MIC 4 mg/L [15]: 9 | Number of Isolates at Gepotidacin MIC 8 mg/L [15]: 10 | Number of Isolates at Gepotidacin MIC ≥16 mg/L [15]: 19 | MIC50 [16]: 16 µg/mL (≈ 35.7 µM) | MIC90 [16]: 64 µg/mL (≈ 143 µM) | Number of Isolates at Gepotidacin MIC 1 mg/L [16]: 1 | Number of Isolates at Gepotidacin MIC 4 mg/L [16]: 6 | Number of Isolates at Gepotidacin MIC 8 mg/L [16]: 14 | Number of Isolates at Gepotidacin MIC ≥16 mg/L [16]: 34 | MIC90 [17]: 2 µg/mL (≈ 4.46 µM) | % of isolates with MIC ≤0.125 mg/L ([18]; 51 isolates): 100% | MIC90 ([18]; Staphylococcus saprophyticus, 51 isolates collected 2005-2018, read-out: MIC90): 0.125 µg/mL (≈ 0.279 µM) | MIC ([18]; Staphylococcus saprophyticus, 51 isolates, read-out: MICs for all S. saprophyticus): ≤ 0.125 µg/mL | MIC50 ([18]; Staphylococcus saprophyticus, n = 51): ≤ 0.06 µg/mL | MIC90 ([18]; n = 51): 0.125 µg/mL (≈ 0.279 µM) | Number of Isolates at Gepotidacin MIC ≤0.25 mg/L ([18]; n = 51): 51
